Measured values taken from ChEMBL document CHEMBL1909046, “DrugMatrix in vitro pharmacology data”.

Columns and labels:
[1] = molecular target: 5-hydroxytryptamine receptor 2B (Homo sapiens, UniProt P41595); assay type: cell membranes, CHO-K1, Membrane; further: in other assays of this panel Not Active means under 50% inhibition at 10 µM
[2] = molecular target: T1, Cysteinyl leukotriene receptor 1 (Homo sapiens, UniProt Q9Y271); assay type: cell membranes, Membrane; conditions: cho-k1; further: in other assays of this panel Not Active means under 50% inhibition at 10 µM
T1 sequence (Q9Y271 whole entry): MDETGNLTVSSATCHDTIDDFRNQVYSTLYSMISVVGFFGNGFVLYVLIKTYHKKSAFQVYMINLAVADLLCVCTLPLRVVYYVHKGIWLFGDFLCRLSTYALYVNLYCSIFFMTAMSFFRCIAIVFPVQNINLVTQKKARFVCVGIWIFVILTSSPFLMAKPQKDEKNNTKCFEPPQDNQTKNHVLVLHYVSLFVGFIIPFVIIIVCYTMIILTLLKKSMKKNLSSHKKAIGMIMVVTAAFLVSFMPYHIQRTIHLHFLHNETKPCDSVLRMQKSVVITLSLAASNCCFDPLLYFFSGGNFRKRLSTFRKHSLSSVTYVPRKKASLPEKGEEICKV

[3] = DRUGMATRIX: GABAA, Flunitrazepam, Central radioligand binding (ligand: [3H] Flunitrazepam); assay type: cell membranes, Rattus norvegicus, Wistar, Brain, Membrane; conditions: Not Active = under 50% inhibition at 10 µM
[4] = molecular target: T2, 5-hydroxytryptamine receptor 2C (Homo sapiens, UniProt P28335); assay: DRUGMATRIX: Serotonin (5-Hydroxytryptamine) 5-HT2C radioligand binding (ligand: [3H] Mesulergine); assay type: cell membranes, CHO-K1, Membrane; conditions: Not Active = under 50% inhibition at 10 µM; for Ki: read-out: Ki
T2 sequence (P28335 whole entry): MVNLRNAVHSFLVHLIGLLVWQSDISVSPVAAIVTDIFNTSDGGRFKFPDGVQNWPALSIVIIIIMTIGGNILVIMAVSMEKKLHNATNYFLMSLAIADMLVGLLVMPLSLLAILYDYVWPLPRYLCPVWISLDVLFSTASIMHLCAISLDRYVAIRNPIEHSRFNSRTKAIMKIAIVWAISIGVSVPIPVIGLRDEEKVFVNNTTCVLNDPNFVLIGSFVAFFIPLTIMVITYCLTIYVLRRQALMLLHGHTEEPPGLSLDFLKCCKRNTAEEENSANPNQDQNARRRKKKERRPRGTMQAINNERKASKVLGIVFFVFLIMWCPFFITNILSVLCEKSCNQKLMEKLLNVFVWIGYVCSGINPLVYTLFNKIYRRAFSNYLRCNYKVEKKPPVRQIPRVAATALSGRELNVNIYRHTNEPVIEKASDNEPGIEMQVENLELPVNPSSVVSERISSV

[5] = molecular target: Beta-3 adrenergic receptor (Homo sapiens, UniProt P13945); assay: DRUGMATRIX: Adrenergic beta3 radioligand binding (ligand: [125I] Cyanopindolol); assay type: cell membranes, HEK293, Membrane; conditions: Not Active = under 50% inhibition at 10 µM; for Ki: read-out: Ki
Cytochrome P450 2C9 = Cytochrome P450 2C9 (Homo sapiens, UniProt P11712); conditions: bti-tn-5b1-4; further: in other assays of this panel Not Active means under 50% inhibition at 10 µM
Cytochrome P450 2C9, sequence (P11712 whole entry): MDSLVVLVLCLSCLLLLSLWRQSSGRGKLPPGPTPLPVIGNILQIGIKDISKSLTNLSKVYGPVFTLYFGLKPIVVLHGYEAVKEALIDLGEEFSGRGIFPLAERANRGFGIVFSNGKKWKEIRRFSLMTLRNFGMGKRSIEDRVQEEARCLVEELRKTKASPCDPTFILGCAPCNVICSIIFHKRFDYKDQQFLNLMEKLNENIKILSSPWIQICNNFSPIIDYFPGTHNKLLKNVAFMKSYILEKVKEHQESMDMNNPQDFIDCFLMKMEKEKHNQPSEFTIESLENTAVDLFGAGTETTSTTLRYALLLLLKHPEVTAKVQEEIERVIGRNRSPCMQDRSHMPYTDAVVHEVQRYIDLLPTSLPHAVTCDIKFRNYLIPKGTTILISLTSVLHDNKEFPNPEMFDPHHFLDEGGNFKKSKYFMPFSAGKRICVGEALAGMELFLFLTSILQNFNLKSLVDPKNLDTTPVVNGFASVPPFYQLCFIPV

5-hydroxytryptamine receptor 2B, sequence (P41595 whole entry): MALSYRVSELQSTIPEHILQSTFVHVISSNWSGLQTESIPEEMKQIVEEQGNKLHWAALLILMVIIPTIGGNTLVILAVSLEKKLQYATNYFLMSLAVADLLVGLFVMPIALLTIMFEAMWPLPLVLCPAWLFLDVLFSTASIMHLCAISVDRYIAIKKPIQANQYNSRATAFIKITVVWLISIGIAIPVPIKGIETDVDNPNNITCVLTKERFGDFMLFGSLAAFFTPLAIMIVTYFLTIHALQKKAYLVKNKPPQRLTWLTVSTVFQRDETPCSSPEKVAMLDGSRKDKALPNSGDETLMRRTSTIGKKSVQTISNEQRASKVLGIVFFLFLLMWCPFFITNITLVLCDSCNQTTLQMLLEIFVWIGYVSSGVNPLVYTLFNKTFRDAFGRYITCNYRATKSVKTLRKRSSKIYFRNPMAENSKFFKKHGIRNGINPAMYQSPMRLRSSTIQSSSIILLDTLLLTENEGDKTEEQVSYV
Beta-3 adrenergic receptor, sequence (P13945 whole entry): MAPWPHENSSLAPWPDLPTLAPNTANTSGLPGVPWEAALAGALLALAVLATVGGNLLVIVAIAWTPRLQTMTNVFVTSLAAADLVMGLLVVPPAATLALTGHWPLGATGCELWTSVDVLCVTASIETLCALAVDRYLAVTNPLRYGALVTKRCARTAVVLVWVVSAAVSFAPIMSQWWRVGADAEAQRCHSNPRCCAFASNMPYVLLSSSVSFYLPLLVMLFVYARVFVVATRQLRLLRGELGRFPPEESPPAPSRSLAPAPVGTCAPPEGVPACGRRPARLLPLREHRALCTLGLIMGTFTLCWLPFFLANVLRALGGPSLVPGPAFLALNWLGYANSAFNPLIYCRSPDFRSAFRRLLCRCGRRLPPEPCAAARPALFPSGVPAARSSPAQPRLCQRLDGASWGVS

SMILES | IC50 ([1]; read-out: IC50) [nM] | Ki ([1]; read-out: Ki) [nM] | IC50 [2] | IC50 [3] | Ki [3] | IC50 ([4]; read-out: IC50) [nM] | Ki [4] [nM] | IC50 ([5]; hek293) | IC50 ([1]; cho-k1) | IC50 (Cytochrome P450 2C9) | Ki (Cytochrome P450 2C9) | IC50 ([4]; cho-k1) | IC50 ([5]; read-out: IC50) [nM] | Ki [5] [nM] | Ki ([1]; cho-k1)
Cc1c(C)c2c(c(C)c1O)CCC(C)(CN1CCN(c3cc(N4CCCC4)nc(N4CCCC4)n3)CC1)O2 (stereo unspecified) | 519 | 330 | Not Active | Not Active | Not Active | 7560 | 3960 | Not Active |  |  |  |  |  |  | 
COc1ccc(CCN(C)CCCC(C#N)(c2ccc(OC)c(OC)c2)C(C)C)cc1OC (stereo unspecified) |  |  | Not Active | Not Active | Not Active |  |  | Not Active |  |  |  |  |  |  | 
CC(C)Cc1ccc([C@@H](C)C(=O)O)cc1 [(R)-IBUPROPHEN] |  |  | Not Active | Not Active | Not Active |  |  | Not Active | Not Active | Not Active | Not Active | Not Active |  |  | 
CN(C)CCOC(c1ccccc1)c1ccccc1 [DIPHENHYDRAMINE] |  |  | Not Active |  |  |  |  | Not Active |  |  |  |  |  |  | 
Clc1ccc(COC(Cn2ccnc2)c2ccc(Cl)cc2Cl)cc1 (stereo unspecified) [ECONAZOLE] |  |  | Not Active |  |  |  |  |  |  |  |  |  | 6150 | 4610 | 
CCN(CC)CCOc1ccc(/C(=C(/Cl)c2ccccc2)c2ccccc2)cc1 [ENCLOMIPHENE] |  |  | Not Active |  |  | 1270 | 666 |  |  | Not Active | Not Active |  | 5670 | 4250 | 
Fc1ccc(C(c2ccc(F)cc2)N2CCN(C/C=C/c3ccccc3)CC2)cc1 [FLUNARIZINE] |  |  | Not Active |  |  | 669 | 351 | Not Active |  | Not Active | Not Active |  |  |  | 
CNCCC(Oc1ccc(C(F)(F)F)cc1)c1ccccc1 (stereo unspecified) [FLUOXETINE] |  |  | Not Active |  |  |  |  | Not Active | Not Active | Not Active | Not Active |  |  |  | 
Cc1ccc(NC(=O)c2ccc(CN3CCN(C)CC3)cc2)cc1Nc1nccc(-c2cccnc2)n1 [IMATINIB] |  |  | Not Active |  |  |  |  | Not Active | Not Active | Not Active | Not Active | Not Active |  |  | 
CC(C)Oc1ccc2c(=O)c(-c3ccccc3)coc2c1 [IPRIFLAVONE] |  |  | Not Active | Not Active | Not Active |  |  | Not Active | Not Active | Not Active | Not Active | Not Active |  |  | 
CC(C)NCC(O)c1ccc(O)c(O)c1 (stereo unspecified) [ISOPROTERENOL] |  |  | Not Active | Not Active | Not Active |  |  | Not Active | Not Active | Not Active | Not Active | Not Active |  |  | 
CNC1(c2ccccc2Cl)CCCCC1=O (stereo unspecified) [KETAMINE] |  |  | Not Active | Not Active | Not Active |  |  | Not Active | Not Active | Not Active | Not Active | Not Active |  |  | 
CCN(CC)CC(=O)Nc1c(C)cccc1C [LIDOCAINE] |  |  | Not Active | Not Active | Not Active |  |  | Not Active | Not Active |  |  | Not Active |  |  | 
CN[C@H]1CC[C@@H](c2ccc(Cl)c(Cl)c2)c2ccccc21 [SERTRALINE] | 3390 | 2160 | Not Active |  |  | 1080 |  | Not Active |  | Not Active | Not Active |  |  |  | 
NC(=O)N1C(=O)/C(=C(\O)c2cccs2)c2cc(Cl)ccc21 [TENIDAP] |  |  | Not Active | Not Active | Not Active |  |  | Not Active | Not Active |  |  | Not Active |  |  | 
CCCCNc1ccc(C(=O)OCCN(C)C)cc1 [TETRACAINE] |  |  | Not Active | Not Active | Not Active | 3270 | 1710 | Not Active |  |  |  |  |  |  | Not Active
Cn1c(=O)c2nc[nH]c2n(C)c1=O.O [THEOPHYLLINE] |  |  | Not Active | Not Active | Not Active |  |  | Not Active | Not Active |  |  | Not Active |  |  | 
O=C(Nc1ccc(Br)cc1)c1cc(Br)cc(Br)c1O [TRIBROMSALAN] |  |  | Not Active | Not Active | Not Active |  |  | Not Active | Not Active |  |  | Not Active |  |  | 
